From patent US4426390A, “Novel β-lactam compounds, process for producing thereof, and use thereof as medicines” (Sanraku-Ocean Co., Ltd., priority 1980, dated 1984)
≈ marks a conversion by molar mass, not a printed value. Like-named read-outs stand apart in the source and are kept apart here.

Tests used:
[1] = tested on: Citrobacter Freundii GN346; assay: Synergistic effect on MIC, microdilution transfer plate technique; assay type: cell-based
Proteus vulgaris GN76 [2] = assay: as above; assay type: cell-based
[3] = tested on: Citrobacter Freundii GN346; assay: Disc assay of synergy, inhibition zones; assay type: cell-based; details: for zone of inhibition at 100 µg/mL: Citrobacter freundii
Experimental: (§1) (B) The presence or absence of synergy is visually checked by the size difference in inhibitory zones observed when the test drug is disc-assayedon an agar plate of a detector microbe and on an agar plate of the detector containing cephaloridine or benzylpenicillin, respectively.
(§2) One loopful of the stock culture of a test organism is inoculated in heat infusion broth (5 ml/tube), and grown at 37° C. for 18 hours. The culture broth is diluted to a final concentration of about 10^5 cells/ml in nutrient agar with or without benzyl penicillin or cephaloridine, and plated in a Petri dish with a diameter of 9 cm, as shown below.
(§3) Using the above-prepared agar plates, antibiotic PS-5 (100 μg/ml), antibiotic OA-6129B2 (5,6-trans OA-6129B) (100 μg/ml), benzylpenicillin (1000 μg/ml) and cephaloridine (1000 μg/ml) are subjected to disc assay.

Enterobacter cloacac 45 = assay: Disc assay of synergy, inhibition zones; assay type: cell-based
Experimental: as §1, §2, §3

Proteus vulgaris GN76 [4] = assay: Disc assay of synergy, inhibition zones; assay type: cell-based; details: for zone of inhibition at 100 µg/mL: Proteus vulgaris
Experimental: as §1, §2, §3

Serratia marccscens T55 = assay: Disc assay of synergy, inhibition zones; assay type: cell-based; details: for zone of inhibition at 100 µg/mL: Serratia
Experimental: as §1, §2, §3

Alcaligenes Faecolis A1 = assay: MIC by agar dilution method; assay type: cell-based; details: Alcaligenes Faecolis A1; agar dilution, 37° C., 18 hours; read-out: MIC
Experimental: (§4) The MIC is measured by an agar dilution method based on the standard method of the Japanese Society of Chemotherapy (Japanese Society of Chemotherapy: The Revised Method of Determination of MIC Values, Chemotherapy 22, 1126-1128, […]). Specifically, the antibiotic is serially diluted with a 1/50 M phosphate buffer at a pH of 7.3 to prepare a twofold dilution series. One milliliter of each dilution and 9 ml of an agar medium (Heart Infusion Agar; a product of Difco Laboratories) are mixed and allowed to solidify in a Petri dish having a diameter of 9 cm. One loopful of the stock culture of the test microbe is inoculated in trypto-soy buillon (a product of Eiken Kagaku Co., Ltd.) and incubated at 37° C. for 18 hours. The resulting culture broth is diluted to a concentration of about 10^6 cells/ml with physiological saline and inoculated on the agar plate by means of a microplanter.

[5] = tested on: Bacillus subtillis ATCC 6633; assay: MIC by agar dilution method; assay type: cell-based; details: ATCC6633; Bacillus subtillis ATCC 6633; agar dilution, 37° C., 18 hours; read-out: MIC
Experimental: as §4

[6] = tested on: Citrobacter Freundii GN346; assay: MIC by agar dilution method; assay type: cell-based; details: 37° C., 18 hours
Experimental: as §4

Comamonas terrigena B996 = assay: MIC by agar dilution method; assay type: cell-based; details: 37° C., 18 hours
Experimental: as §4

E. coli RGN823 = assay: MIC by agar dilution method; assay type: cell-based; details: Escherichia coli, 37° C., 18 hours
Experimental: as §4

Ent. cloacae 45 = assay: MIC by agar dilution method; assay type: cell-based; details: Enterobacter cloacae, 37° C., 18 hours
Experimental: as §4

Ent. sp. E8 = assay: MIC by agar dilution method; assay type: cell-based; details: Ent. sp. E8; agar dilution, 37° C., 18 hours; read-out: MIC
Experimental: as §4

[7] = tested on: Enterobacter aerogenes E19; assay: MIC by agar dilution method; assay type: cell-based; details: Klebsiella aerogenes, 37° C., 18 hours
Experimental: as §4

Escherichia coli K-12 = assay: MIC by agar dilution method; assay type: cell-based; details: K12; Escherichia coli K-12; agar dilution, 37° C., 18 hours; read-out: MIC
Experimental: as §4

[8] = tested on: Klebsiella pneumoniae K13; assay: MIC by agar dilution method; assay type: cell-based; details: 37° C., 18 hours
Experimental: as §4

P. rettgeri P7 = assay: MIC by agar dilution method; assay type: cell-based; details: Providencia rettgeri; P. rettgeri P7; agar dilution, 37° C., 18 hours; read-out: MIC
Experimental: as §4

P. vulgaris GN76 = assay: MIC by agar dilution method; assay type: cell-based; details: Proteus vulgaris, 37° C., 18 hours
Experimental: as §4

Proteus mirabilis P6 = assay: MIC by agar dilution method; assay type: cell-based; details: Proteus mirabilis P6; agar dilution, 37° C., 18 hours; read-out: MIC
Experimental: as §4

Providencia sp. P8 = assay: MIC by agar dilution method; assay type: cell-based; details: Providencia sp. P8; agar dilution, 37° C., 18 hours; read-out: MIC
Experimental: as §4

Ps. aeruginosa NCTC10490 = assay: MIC by agar dilution method; assay type: cell-based; details: Pseudomonas aeruginosa, 37° C., 18 hours
Experimental: as §4

[9] = tested on: Pseudomonas aenginosa IFO3445; assay: MIC by agar dilution method; assay type: cell-based; details: 37° C., 18 hours
Experimental: as §4

S. aureus Russell = assay: MIC by agar dilution method; assay type: cell-based; details: Staphylococcus aureus; S. aureus Russell; agar dilution, 37° C., 18 hours; read-out: MIC
Experimental: as §4

S. aureus Smith = assay: MIC by agar dilution method; assay type: cell-based; details: Staphylococcus aureus, 37° C., 18 hours
Experimental: as §4

S. epidermidis = assay: MIC by agar dilution method; assay type: cell-based; details: Staphylococcus epidermidis, 37° C., 18 hours
Experimental: as §4

Sarcina lutea S19 = assay: MIC by agar dilution method; assay type: cell-based; details: Micrococcus luteus, 37° C., 18 hours
Experimental: as §4

Ser. marcesceus T55 = assay: MIC by agar dilution method; assay type: cell-based; details: 37° C., 18 hours
Experimental: as §4

Serratia marcesceus S18 = assay: MIC by agar dilution method; assay type: cell-based; details: 37° C., 18 hours
Experimental: as §4

[10] = tested on: Staphylococcus aureus 209P; assay: MIC by agar dilution method; assay type: cell-based; details: 37° C., 18 hours
Experimental: as §4

[11] = Stability (half life) in phosphate buffers of various pH; assay type: physicochemical; details: 28° C.
Experimental: By adding 2% sodium hydroxide or 10% hydrochloric acid, the pH of 0.05 M phosphate buffer is adjusted to 4, 5, 6, 7, 8 and 9, respectively, and distributed into test tubes in an amount of 3 ml. Concentrated solution of antibiotic OA-6129A (0.05 ml) is added to each test tube and allowed to stand in a thermostatic chamber of 28° C. The time course curve of the concentration decrease of antibiotic OA-6129A is drawn by spectrophotometric measurement at 300 nm, from which the half life of the antibiotic at the indicated pH is calculated. As a control, antibiotic PS-5, a carbapenem compound described in the above-cited reference is simultaneously tested.

[12] = plate: + CER, disc OA-6129B2, PS-5 100 μg/ml, CER, PCG 1000 μg/ml
[13] = plate: + PCG, disc OA-6129B2, PS-5 100 μg/ml, CER, PCG 1000 μg/ml
[14] = plate: + PCG, reduced to 5 μg/ml (final concentration), disc OA-6129B2, PS-5 100 μg/ml, CER, PCG 1000 μg/ml

O=C(Cc1cccs1)N[C@@H]1C(=O)N2C(C(=O)[O-])=C(C[n+]3ccccc3)CS[C@H]12 [CER, Cephaloridine]
MIC of CER in combination ([1]; with OA-6129A 1.56 μg/ml): 1250 µg/mL | MIC of CER in combination ([1]; with OA-6129A 6.25 μg/ml): 313 µg/mL | MIC of CER in combination ([1]; with OA-6129A 25 μg/ml): < 5 µg/mL | MIC of CER in combination ([1]; with OA-6129A 50 μg/ml): < 5 µg/mL | MIC (Proteus vulgaris GN76 [2]; Proteus vulgaris, GN76, alone, heart infusion broth, 10^5 cells/ml): 1250 µg/mL | MIC of CER in combination (Proteus vulgaris GN76 [2]; with OA-6129A 1.56 μg/ml): 313 µg/mL | MIC of CER in combination (Proteus vulgaris GN76 [2]; with OA-6129A 6.25 μg/ml): 39 µg/mL | MIC of CER in combination (Proteus vulgaris GN76 [2]; with OA-6129A 25 μg/ml): < 5 µg/mL | MIC of CER in combination (Proteus vulgaris GN76 [2]; with OA-6129A 50 μg/ml): < 5 µg/mL | zone of inhibition at 100 µg/mL ([3]; GN346, read-out: diameter of inhibition zones): 0 mm | diameter of inhibition zones [3, 12]: 0 mm | diameter of inhibition zones [3, 13]: 0 mm | zone of inhibition at 100 µg/mL (Enterobacter cloacac 45; Enterobacter, 45, read-out: diameter of inhibition zones): 0 mm | diameter of inhibition zones (Enterobacter cloacac 45; [12]): 0 mm | diameter of inhibition zones (Enterobacter cloacac 45; [13]): 0 mm | zone of inhibition at 100 µg/mL (Proteus vulgaris GN76 [4]; GN76, read-out: diameter of inhibition zones): 0 mm | diameter of inhibition zones (Proteus vulgaris GN76 [4]; [12]): 0 mm | diameter of inhibition zones (Proteus vulgaris GN76 [4]; [13]): 0 mm | zone of inhibition at 100 µg/mL (Serratia marccscens T55; T55, read-out: diameter of inhibition zones): 0 mm | diameter of inhibition zones (Serratia marccscens T55; [12]): 0 mm | diameter of inhibition zones (Serratia marccscens T55; [14]): 0 mm

CCC1C(=O)N2C(C(=O)O)=C(SCCNC(C)=O)CC12 (centres unmarked) [PS-5, reference compound]
MIC (Alcaligenes Faecolis A1): 0.78 µg/mL (≈ 2.61 µM) | MIC [5]: 0.1 µg/mL (≈ 0.335 µM) | MIC [6]: 3.13 µg/mL (≈ 10.5 µM) | MIC (Comamonas terrigena B996): 0.012 µg/mL (≈ 0.0402 µM) | MIC (E. coli RGN823): 3.13 µg/mL (≈ 10.5 µM) | MIC (Ent. cloacae 45): 3.13 µg/mL (≈ 10.5 µM) | MIC (Ent. sp. E8): 3.13 µg/mL (≈ 10.5 µM) | MIC [7]: 3.13 µg/mL (≈ 10.5 µM) | MIC (Escherichia coli K-12): 1.56 µg/mL (≈ 5.23 µM) | MIC [8]: 3.13 µg/mL (≈ 10.5 µM) | MIC (P. rettgeri P7): 3.13 µg/mL (≈ 10.5 µM) | MIC (P. vulgaris GN76): 6.25 µg/mL (≈ 20.9 µM) | MIC (Proteus mirabilis P6): 6.25 µg/mL (≈ 20.9 µM) | MIC (Providencia sp. P8): 3.13 µg/mL (≈ 10.5 µM) | MIC (Ps. aeruginosa NCTC10490): 12.5 µg/mL (≈ 41.9 µM) | MIC [9]: 12.5 µg/mL (≈ 41.9 µM) | MIC (S. aureus Russell): 0.2 µg/mL (≈ 0.67 µM) | MIC (S. aureus Smith): 0.2 µg/mL (≈ 0.67 µM) | MIC (S. epidermidis): 0.2 µg/mL (≈ 0.67 µM) | MIC (Sarcina lutea S19): 0.1 µg/mL (≈ 0.335 µM) | MIC (Ser. marcesceus T55): 6.25 µg/mL (≈ 20.9 µM) | MIC (Serratia marcesceus S18): 3.13 µg/mL (≈ 10.5 µM) | MIC [10]: 0.024 µg/mL (≈ 0.0804 µM) | zone of inhibition at 100 µg/mL ([3]; GN346, plate: None, disc OA-6129B2, PS-5 100 μg/ml, CER, PCG 1000 μg/ml, read-out: diameter of inhibition zones): 22.5 mm | diameter of inhibition zones [3, 12]: 24.0 mm | diameter of inhibition zones [3, 13]: 23.5 mm | zone of inhibition at 100 µg/mL (Enterobacter cloacac 45; Enterobacter, 45, plate: None, disc OA-6129B2, PS-5 100 μg/ml, CER, PCG 1000 μg/ml, read-out: diameter of inhibition zones): 20 mm | diameter of inhibition zones (Enterobacter cloacac 45; [12]): 22.5 mm | diameter of inhibition zones (Enterobacter cloacac 45; [13]): 21.0 mm | zone of inhibition at 100 µg/mL (Proteus vulgaris GN76 [4]; GN76, plate: None, disc OA-6129B2, PS-5 100 μg/ml, CER, PCG 1000 μg/ml, read-out: diameter of inhibition zones): 17.5 mm | diameter of inhibition zones (Proteus vulgaris GN76 [4]; [12]): 23.5 mm | diameter of inhibition zones (Proteus vulgaris GN76 [4]; [13]): 25.0 mm | zone of inhibition at 100 µg/mL (Serratia marccscens T55; T55, plate: None, disc OA-6129B2, PS-5 100 μg/ml, CER, PCG 1000 μg/ml, read-out: diameter of inhibition zones): 23.5 mm | diameter of inhibition zones (Serratia marccscens T55; [12]): 34.0 mm | diameter of inhibition zones (Serratia marccscens T55; [14]): 24.0 mm | half-life ([11]; pH 4, 0.05 M phosphate buffer): 0.2 h | half-life ([11]; pH 5, 0.05 M phosphate buffer): 3.43 h | half-life ([11]; pH 6, 0.05 M phosphate buffer): 13.2 h | half-life ([11]; pH 7, 0.05 M phosphate buffer): 38.2 h | half-life ([11]; pH 8, 0.05 M phosphate buffer): 78 h | half-life ([11]; pH 9, 0.05 M phosphate buffer): 36.2 h
